In article PMC10528299, “Targeting FAK/PYK2 with SJP1602 for Anti-Tumor Activity in Triple-Negative Breast Cancer” (Current Issues in Molecular Biology, 2023):

Tests used:
FAK = target: T1, FAK (Homo sapiens, UniProt Q05397); experiment: ADP-Glo kinase assay FAK; assay type: biochemical; settings: mean ± SEM (n = 3)
T1 construct: purchased Promega V1971
Experimental: (§1) The kinase assays were performed and quantified according to the manufacturer’s instructions using the ADP-Glo™ Kinase Assay Kit for FAK (Promega, V1971), PYK2 (Promega, V4083) and InsR (Promega, V3901). Each kinase reaction mixture was prepared to contain the compounds of interest. After thorough pipetting, 25 μL of the mixture was added to each well and incubated for 1 h at room temperature. Subsequently, 25 μL of ADP-Glo reagent was added, followed by a 40 m incubation at room temperature. Next, 50 μL of the kinase detection reagent was added, and the mixture was incubated for an additional 30 m at room temperature. Luminescence was measured using the Tecan Spark 10M (Integration time: 1 s) (Männedorf, Switzerland).

Insulin Receptor (InsR) = target: T2, Insulin Receptor (InsR) (Homo sapiens, UniProt P06213); experiment: ADP-Glo kinase assay InsR; assay type: biochemical; settings: mean ± SEM (n = 3)
T2 construct: purchased Promega V3901
Experimental: as §1

[1] = Pharmacokinetics in SD rats; assay type: in vivo, rat
Experimental: The pharmacokinetics (PK) study was conducted in male SD rats. Three rats received a single-dose intravenous injection of SJP1602 at 5 mg/kg, and another set of three rats received a single-dose oral administration of SJP1602 at 20 mg/kg. The vehicle composition used was DMA 3% and Cremophor ELP 4%. Blood drug concentrations over time were determined by drawing blood after 0.17, 0.5, 1, 2, 4, 6, and 24 h. Plasma was isolated using K3EDTA anticoagulation tubes, and the drug concentration in the plasma was analyzed by LC/MS/MS (Waters, MA, USA). To analyze the concentration of pretreated rat plasma samples, a Waters Acquity ultra-performance liquid chromatography system (UPLC, Waters) was employed, in tandem with a C18 column (Acquity UPLC® BEH C18 1.7 μm, 2.1 × 50 mm). The mass spectrometry analysis was conducted using the Waters Xevo-TQ-S micro. For the mobile phases, phase A consisted of distilled water with 0.1% formic acid, while phase B comprised methanol, also with 0.1% formic acid. PK parameters were subsequently derived using WinNonlin software (version 2.1), which enabled the determination of AUC (ng×h/mL), Cmax (ng/mL), and bioavailability (BA). The area under the drug concentration curve (AUC) was calculated utilizing the trapezoidal rule, focusing on the time interval AUC0–24h.

[2] = Cytotoxicity on normal cell line WI38; assay type: cell-based; settings: human, WI38 cells (normal cell line); read-out: Cytotoxicity on Normal Cell Lines IC50
[3] = Toxicity and body weight in xenograft mice; settings: mouse xenograft experiments, 20-80 mg/kg po daily
Experimental: Upon establishment of tumors, with an average tumor volume reaching approximately 100 mm^3, mice were grouped and subjected to daily oral dosing. […] The duration of drug administration was defined for 2 weeks based on the growth rate of the vehicle group of each xenografted tumor. The tumor volume was measured three times a week for potency measurement, and the body weight of mice was also measured three times a week for toxicity evaluation in vivo.

[4] = male, SD, rat, plasma, po, 20 mg/kg, po 20 mg/kg, male SD rats
[5] = rat, plasma, iv 5 mg/kg, male SD rats
[6] = rat, plasma, po 20 mg/kg, male SD rats

T1 sequence (Q05397 whole entry): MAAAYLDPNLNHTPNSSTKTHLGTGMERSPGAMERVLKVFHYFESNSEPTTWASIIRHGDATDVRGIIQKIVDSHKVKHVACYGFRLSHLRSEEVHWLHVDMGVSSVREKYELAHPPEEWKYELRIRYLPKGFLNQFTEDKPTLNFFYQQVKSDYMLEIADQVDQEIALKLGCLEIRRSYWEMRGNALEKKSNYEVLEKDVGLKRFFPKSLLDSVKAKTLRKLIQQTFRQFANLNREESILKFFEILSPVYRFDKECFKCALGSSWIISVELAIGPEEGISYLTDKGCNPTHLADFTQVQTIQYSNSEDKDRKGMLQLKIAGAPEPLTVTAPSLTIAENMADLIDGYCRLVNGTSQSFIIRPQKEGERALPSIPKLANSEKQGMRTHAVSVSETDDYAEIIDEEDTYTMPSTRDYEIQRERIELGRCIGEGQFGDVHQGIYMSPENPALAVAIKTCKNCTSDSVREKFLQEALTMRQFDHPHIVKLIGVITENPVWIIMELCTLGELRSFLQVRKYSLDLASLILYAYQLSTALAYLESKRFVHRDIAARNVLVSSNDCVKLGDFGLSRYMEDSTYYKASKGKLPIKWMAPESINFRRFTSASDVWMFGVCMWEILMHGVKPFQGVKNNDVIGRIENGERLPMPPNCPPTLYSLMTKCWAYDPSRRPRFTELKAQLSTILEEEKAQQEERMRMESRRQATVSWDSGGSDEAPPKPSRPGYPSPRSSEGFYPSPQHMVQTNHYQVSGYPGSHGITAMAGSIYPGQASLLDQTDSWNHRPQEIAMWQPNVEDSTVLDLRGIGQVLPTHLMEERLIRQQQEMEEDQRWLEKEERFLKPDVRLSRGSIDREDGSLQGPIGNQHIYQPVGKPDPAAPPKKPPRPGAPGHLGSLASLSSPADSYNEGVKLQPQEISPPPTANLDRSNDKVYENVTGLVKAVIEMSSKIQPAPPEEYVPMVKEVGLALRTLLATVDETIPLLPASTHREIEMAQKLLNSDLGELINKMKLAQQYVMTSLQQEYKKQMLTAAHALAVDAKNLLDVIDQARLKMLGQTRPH
T2 sequence (P06213 28-1382): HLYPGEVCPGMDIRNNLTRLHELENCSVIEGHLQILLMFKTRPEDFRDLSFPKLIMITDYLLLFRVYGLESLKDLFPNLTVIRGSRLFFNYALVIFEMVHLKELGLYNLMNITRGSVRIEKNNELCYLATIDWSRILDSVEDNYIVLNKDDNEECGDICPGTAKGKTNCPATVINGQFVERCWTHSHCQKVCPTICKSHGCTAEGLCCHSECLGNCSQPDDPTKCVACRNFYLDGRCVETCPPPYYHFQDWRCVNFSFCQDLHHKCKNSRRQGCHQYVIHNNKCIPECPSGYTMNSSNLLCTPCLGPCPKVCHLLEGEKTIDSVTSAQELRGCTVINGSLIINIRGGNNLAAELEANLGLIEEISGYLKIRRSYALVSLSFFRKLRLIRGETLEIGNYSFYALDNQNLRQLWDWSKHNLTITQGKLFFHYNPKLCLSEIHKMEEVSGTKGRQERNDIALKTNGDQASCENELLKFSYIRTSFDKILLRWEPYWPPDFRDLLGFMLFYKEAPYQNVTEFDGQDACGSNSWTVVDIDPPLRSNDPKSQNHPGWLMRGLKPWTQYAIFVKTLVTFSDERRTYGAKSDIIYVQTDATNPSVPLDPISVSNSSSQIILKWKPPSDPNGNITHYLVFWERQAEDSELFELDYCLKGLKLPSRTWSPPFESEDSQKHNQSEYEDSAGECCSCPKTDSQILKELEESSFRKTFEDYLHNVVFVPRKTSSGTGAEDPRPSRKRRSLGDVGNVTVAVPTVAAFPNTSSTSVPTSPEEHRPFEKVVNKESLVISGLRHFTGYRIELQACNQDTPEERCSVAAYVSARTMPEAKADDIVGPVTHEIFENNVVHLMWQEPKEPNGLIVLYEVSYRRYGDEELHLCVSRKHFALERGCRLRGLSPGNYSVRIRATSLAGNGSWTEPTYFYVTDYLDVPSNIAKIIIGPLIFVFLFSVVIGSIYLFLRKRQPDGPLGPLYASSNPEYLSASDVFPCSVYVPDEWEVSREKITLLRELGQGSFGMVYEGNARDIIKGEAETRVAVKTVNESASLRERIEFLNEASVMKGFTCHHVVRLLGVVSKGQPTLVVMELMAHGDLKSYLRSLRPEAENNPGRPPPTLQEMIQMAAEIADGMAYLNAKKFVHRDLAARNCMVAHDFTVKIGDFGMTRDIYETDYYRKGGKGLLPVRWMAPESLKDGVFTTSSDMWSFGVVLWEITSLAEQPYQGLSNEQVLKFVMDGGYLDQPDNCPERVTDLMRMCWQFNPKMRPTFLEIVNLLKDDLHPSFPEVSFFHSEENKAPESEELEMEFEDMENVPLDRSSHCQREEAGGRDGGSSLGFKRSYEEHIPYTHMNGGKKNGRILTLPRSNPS

Question: With `CNC(=O)c1cccc(C)c1Nc1nc(Nc2ccc(N3CCN(C4C5CC6CC4CC(O)(C6)C5)CC3)cc2OC)ncc1C(F)(F)F` (stereo not shown) [SJP1602, 2-((2-((4-(4-((2s,5r)-5-hydroxyadamantan-2-yl)piperazin-1-yl)-2-methoxyphenyl)amino)-5-(trifluoromethyl)pyrimidin-4-yl)amino)-N,3-dimethylbenzamide] as the molecule, how does the IC50 (FAK) read?
Answer: The IC50 was 3.7 ± 0.007 nM.

Question: And the IC50 (Insulin Receptor (InsR))?
Answer: Its IC50 is 1170 ± 60.1 nM.

Question: What about the half-life ([1]; male, SD, rat, plasma, iv, 5 mg/kg, iv 5 mg/kg, male SD rats) of the same molecule?
Answer: Its half-life is 0.93 ± 0.25 h.

Question: And the bioavailability [1, 4]?
Answer: The bioavailability was 45%.

Question: And the half-life [1, 4]?
Answer: Its half-life is 2.2 h.

Question: What about the AUC ([1]; male, SD, rat, plasma, single oral dose 20 mg/kg, rats, read-out: area under the curve (AUC)) of the same molecule?
Answer: The AUC was 22 µM·h.

Question: And the T1/2 ([1]; po 20 mg/kg, male SD rats, 20 mg/kg)?
Answer: Its T1/2 is 2.24 ± 0.19 h.

Question: What about the AUC(0-t) [1, 5] of the same molecule?
Answer: Its AUC(0-t) is 7070 ng·h/mL.

Question: And the Cmax [1, 5]?
Answer: Its Cmax is 3890 ng/mL.

Question: What about the Tmax [1, 5] of the same molecule?
Answer: The Tmax was 0.28 h.

Question: What about the AUC(0-t) [1, 6] of the same molecule?
Answer: Its AUC(0-t) is 14700 ng·h/mL.

Question: What about the Cmax [1, 6] of the same molecule?
Answer: The Cmax was 3270 ng/mL.

Question: And the Tmax [1, 6]?
Answer: The Tmax was 1 h.

Question: What about the peak concentration ([1]; single oral dose 20 mg/kg, rats) of the same molecule?
Answer: Its peak concentration is 4.9 µmol/L.

Question: And the IC50 [2]?
Answer: The IC50 was 7280 nM.

Question: And the “signs of toxicity or weight loss in xenograft mice” value [3]?
Answer: The value was “no signs of toxicity or significant weight loss”.
